Test results as given in patent US20240182445A1 (ONO PHARMACEUTICAL CO., LTD., priority 2019, published 2024).

What follows are molecules tested against T1, human TREK-1 (Homo sapiens, UniProt O95069) (assay: TREK-1 Thallium (Tl+) flux assay, Method 1). Details: TREK-1 Thallium (Tl+) flux assay, Method 1.
T1 construct: expressed in transfected cells
T1 sequence (O95069 1-426): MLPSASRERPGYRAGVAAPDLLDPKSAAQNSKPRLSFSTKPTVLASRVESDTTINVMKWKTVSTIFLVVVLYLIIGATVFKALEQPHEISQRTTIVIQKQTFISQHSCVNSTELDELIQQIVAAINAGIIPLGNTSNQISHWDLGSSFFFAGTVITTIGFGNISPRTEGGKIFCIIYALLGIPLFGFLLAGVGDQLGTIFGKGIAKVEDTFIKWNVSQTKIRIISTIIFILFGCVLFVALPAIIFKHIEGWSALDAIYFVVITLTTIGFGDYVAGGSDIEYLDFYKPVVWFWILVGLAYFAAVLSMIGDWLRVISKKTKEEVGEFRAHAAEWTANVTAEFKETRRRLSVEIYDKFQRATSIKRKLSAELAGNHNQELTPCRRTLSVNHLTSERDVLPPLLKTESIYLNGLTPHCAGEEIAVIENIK
Assay type: cell-based
Method in brief: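 CHO-K1 cells stably expressing human TREK-1, loaded with Thallos dye, received compound or 0.3% DMSO vehicle for 10 min before thallium stimulus buffer. ΔRatio is fluorescence at 25 s after thallium addition over mean pre-addition fluorescence; % inhibition calculated from it.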

IC50 [nM] | Compound
4160 | Cc1cc(OCc2ccccc2)ccc1NC(=O)c1c(Cl)cnn1CC1CN(C(=O)C2CC2C)CCO1 (stereo not shown) [Compound 417, N-(4-(benzyloxy)-2-methylphenyl)-4-chloro-1-((4-(2-methylcyclopropane-1-carbonyl)morpholin-2-yl)methyl)-1H-pyrazole-5-carboxamide]
4460 | CC(=O)N1CCC(n2ncc(Cl)c2C(=O)Nc2ncc(-c3cnc4ccccc4c3)cc2C)CC1 [Compound 422, 1-(1-acetylpiperidin-4-yl)-4-chloro-N-(3-methyl-5-(quinolin-3-yl)pyridin-2-yl)-1H-pyrazole-5-carboxamide]
9960 | COc1cc(-c2cnc(NC(=O)c3c(Cl)cnn3C3CCN(C(=O)OC(C)(C)C)CC3)c(C)c2)ccn1 [Compound 437, tert-butyl 4-(4-chloro-5-((2′-methoxy-5-methyl-[3,4′-bipyridin]-6-yl)carbamoyl)-1H-pyrazol-1-yl)piperidine-1-carboxylate]
3530 | Cc1cc(-c2cnn(-c3ccccc3)c2)cnc1NC(=O)c1c(Cl)cnn1C1CCN(C(=O)OC(C)(C)C)CC1 [Compound 413, tert-butyl 4-(4-chloro-5-((3-methyl-5-(1-phenyl-1H-pyrazol-4-yl)pyridin-2-yl)carbamoyl)-1H-pyrazol-1-yl)piperidine-1-carboxylate]

Same assay, conditions: TREK-1 Thallium (Tl+) flux assay; no *^12 (Method 2) mark on these rows

IC50 [nM] | Compound
340 | Cc1cc(C#Cc2ccc(F)cc2)cnc1NC(=O)c1c(Cl)cnn1CC1CCCN(C(=O)C2COCCO2)C1 (stereo not shown) [Compound 223, 1-((1-(1,4-dioxane-2-carbonyl)piperidin-3-yl)methyl)-4-chloro-N-(5-((4-fluorophenyl)ethynyl)-3-methylpyridin-2-yl)-1H-pyrazole-5-carboxamide]
490 | Cc1cc(C#Cc2ccccc2)cnc1NC(=O)c1c(Cl)cnn1[C@H]1C[C@@H]2CN(C(=O)C3CC3)C[C@@H]2C1 [Compound 282, 4-chloro-1-[(3aR,5s,6aS)-2-(cyclopropanecarbonyl)octahydro-cyclopenta[c]pyrrol-5-yl]-N-[3-methyl-5-(phenylethynyl)pyridin-2-yl]-1H-pyrazole-5-carboxamide]
1130 | Cc1ncc(Cn2ncc(Cl)c2C(=O)Nc2ncc(C#Cc3ccccc3)cc2C)s1 [Compound 374, 4-chloro-N-(3-methyl-5-(phenylethynyl)pyridin-2-yl)-1-((2-methylthiazol-5-yl)methyl)-1H-pyrazole-5-carboxamide]
480 | Cc1cc(C#Cc2ccccc2)cnc1NC(=O)c1c(Cl)cnn1C1CCCN(C(=O)OC(C)(C)C)CC1 (stereo not shown) [Compound 277, tert-butyl 4-(4-chloro-5-((3-methyl-5-(phenylethynyl)pyridin-2-yl)carbamoyl)-1H-pyrazol-1-yl)azepane-1-carboxylate]
390 | CC(C)(C)C(=O)N1CCC(n2ncc(Cl)c2C(=O)Nc2ncc(C#Cc3cccs3)cc2F)CC1 [Compound 247, 4-chloro-N-(3-fluoro-5-(thiophen-2-ylethynyl)pyridin-2-yl)-1-(1-pivaloylpiperidin-4-yl)-1H-pyrazole-5-carboxamide]
320 | Cc1cc(C#Cc2ccccc2)cnc1NC(=O)c1c(Cl)cnn1C1CCOCC1 [Compound 210, 4-chloro-N-(3-methyl-5-(phenylethynyl)pyridin-2-yl)-1-(tetrahydro-2H-pyran-4-yl)-1H-pyrazole-5-carboxamide]
1210 | Cc1cc(-c2cnn(-c3ccc(F)cc3)c2)cnc1NC(=O)c1c(Cl)cnn1CC1(C#N)CC1 [Compound 389, 4-chloro-1-((1-cyanocyclopropyl)methyl)-N-(5-(1-(4-fluorophenyl)-1H-pyrazol-4-yl)-3-methylpyridin-2-yl)-1H-pyrazole-5-carboxamide]
540 | Cc1cc(C#Cc2ccccc2)cnc1NC(=O)c1c(Cl)cnn1[C@H]1CCN(C(=O)OC(C)(C)C)C1 [Compound 298, tert-butyl (S)-3-(4-chloro-5-((3-methyl-5-(phenylethynyl)pyridin-2-yl)carbamoyl)-1H-pyrazol-1-yl)pyrrolidine-1-carboxylate]
870 | Cc1cc(C#Cc2ccccc2)cnc1NC(=O)c1c(Cl)cnn1[C@H]1C[C@@H](NC(=O)OC(C)(C)C)C1 [Compound 357, tert-butyl (cis-3-(4-chloro-5-((3-methyl-5-(phenylethynyl)pyridin-2-yl)carbamoyl)-1H-pyrazol-1-yl)cyclobutyl)carbamate]
430 | Cc1cc(C#Cc2ccc(F)cc2)cnc1NC(=O)c1c(Cl)cnn1CC1CCCN(C(=O)C2CC2C)C1 (stereo not shown) [Compound 264, 4-chloro-N-(5-((4-fluorophenyl)ethynyl)-3-methylpyridin-2-yl)-1-((1-(2-methylcyclopropane-1-carbonyl)piperidin-3-yl)methyl)-1H-pyrazole-5-carboxamide]
440 | N#CC1CC(n2ncc(Cl)c2C(=O)Nc2ncc(C#Cc3ccccc3)cc2F)C1 (stereo not shown) [Compound 266, 4-chloro-1-(3-cyanocyclobutyl)-N-(3-fluoro-3-(phenylethynyl)pyridin-2-yl)-1H-pyrazole-5-carboxamide]
520 | Cc1cc(C#Cc2ccc(F)cc2)cnc1NC(=O)c1c(Cl)cnn1C[C@@H]1CCN(C(=O)C(C)C)C[C@H]1F [Compound 293, 4-chloro-1-(((3S,4S)-3-fluoro-1-isobutyrylpiperidin-4-yl)methyl)-N-(5-((4-fluorophenyl)ethynyl)-3-methylpyridin-2-yl)-1H-pyrazole-5-carboxamide]
610 | Cc1cc(OCc2ccccc2)ccc1NC(=O)c1c(Cl)cnn1[C@H]1CC[C@@H](NC(=O)CC(C)C)CC1 [Compound 382, N-(4-(benzyloxy)-2-methylphenyl)-4-chloro-1-(cis-4-(3-methylbutanamido)cyclohexyl)-1H-pyrazole-5-carboxamide]

Same assay, conditions: TREK-1 Thallium (Tl+) flux assay; values without footnote *12 are Method 1

IC50 [nM] | Compound
160 | CC(=O)N1CCC(n2ncc(Cl)c2C(=O)Nc2ncc(C#Cc3cccc(F)c3)cc2C)CC1C (stereo not shown) [Compound 72, 1-(1-acetyl-2-methylpiperidin-4-yl)-4-chloro-N-(5-((3-fluorophenyl)ethynyl)-3-methylpyridin-2-yl)-1H-pyrazole-5-carboxamide]
270 | CC(=O)N1CCCC(Cn2ncc(Cl)c2C(=O)Nc2ncc(C#Cc3ccccc3)cc2C)C1 (stereo not shown) [Compound 176, 1-((1-acetylpiperdin-3-yl)methyl)-4-chloro-N-(3-methyl-5-(phenylethynyl)pyridin-2-yl)-1H-pyrazole-5-carboxamide]
220 | Cc1cc(C#Cc2ccccc2)cc(F)c1NC(=O)c1c(Cl)cnn1CC1(C#N)CC1 [Compound 127, 4-chloro-1-((1-cyanocyclopropyl)methyl)-N-(2-fluoro-6-methyl-4-(phenylethynyl)phenyl)-1H-pyrazole-5-carboxamide]
180 | CCNC(=O)N1CCC(n2ncc(Cl)c2C(=O)Nc2ncc(C#Cc3ccccc3)cc2C)CC1 [Compound 90, 4-(4-chloro-5-((3-methyl-5-(phenylethynyl)pyridin-2-yl)carbamoyl)-1H-pyrazol-1-yl)-N-ethylpiperidine-1-carboxamide]
80 | O=C(Nc1ncc(C#Cc2ccc(F)cc2)cc1F)c1c(Cl)cnn1[C@H]1CC[C@@H](NC(=O)C2COCCO2)CC1 (stereo partly drawn) [Compound 23, 1-(cis-4-(1,4-dioxane-2-carboxamido)cyclohexyl)-4-chloro-N-(3-fluoro-5-((4-fluorophenyl)ethynyl)pyridin-2-yl)-1H-pyrazole-5-carboxamide]
300 | Cc1cc(C#Cc2ccccc2)cc(F)c1NC(=O)c1c(Cl)cnn1C1CC(C#N)C1 (stereo not shown) [Compound 194, 4-chloro-1-(3-cyanocyclobutyl)-N-(2-fluoro-6-methyl-4-(phenylethynyl)phenyl)-1H-pyrazole-5-carboxamide]
200 | Cc1cc(C#Cc2ccc(F)cc2)cnc1NC(=O)c1c(Cl)cnn1C1CC2(C1)CN(C(=O)C(C)C)C2 [Compound 116, 4-chloro-N-(5-((4-fluorophenyl)ethynyl)-3-methylpyridin-2-yl)-1-(2-isobutyryl-2-azaspiro[3.3]heptan-6-yl)-1H-pyrazole-5-carboxamide]

Same assay, conditions: read-out: Tl^+ Assay % inhibition at 30 uM (Minus value indicates activation of TREK-1); at 30 uM; CHO-K1 cells stably expressing human TREK-1; minus = activation

inhibition at 30 µM [%] | Compound
-115 | CC(=O)N1CCC(CCn2cc(Cl)c(C(=O)Nc3ncc(C#Cc4ccccc4F)cc3C)n2)CC1 [Compound 445, 1-(2-(1-acetylpiperidin-4-yl)ethyl)-4-chloro-N-(5-((2-fluorophenyl)ethynyl)-3-methylpyridin-2-yl)-1H-pyrazole-3-carboxamide]
-163 | CC(=O)N1CCC(CCn2cc(Cl)c(C(=O)Nc3ncc(C#Cc4cccc(F)c4)cc3C)n2)CC1 [Compound 439, 1-(2-(1-acetylpiperidin-4-yl)ethyl)-4-chloro-N-(5-((3-fluorophenyl)ethynyl)-3-methylpyridin-2-yl)-1H-pyrazol-3-carboxamide]
-62 | O=C(Nc1ncc(C#Cc2cccs2)cc1F)c1nn(CCC2CCN(C(=O)C3CC3)CC2)cc1Cl [Compound 452, 4-chloro-1-(2-(1-(cyclopropanecarbonyl)piperidin-4-yl)ethyl)-N-(3-fluoro-5-(thiophen-2-ylethynyl)pyridin-2-yl)-1H-pyrazole-3-carboxamide]
-118 | CC(=O)N1CCC(CCn2cc(Cl)c(C(=O)Nc3ncc(C#Cc4ccc(F)cc4)cc3C)n2)CC1 [Compound 442, 1-(2-(1-acetylpiperidin-4-yl)ethyl)-4-chloro-N-(5-((4-fluorophenyl)ethynyl)-3-methylpyridin-2-yl)-1H-pyrazole-3-carboxamide]
